Here are results for 41 compounds from US12624034B2, “Non-covalent modifiers of AKT1 and uses thereof” (Terremoto Biosciences, Inc., priority 2023, dated 2026).

One experiment deals with T1, AKT2 (Homo sapiens, UniProt P31751).
T1 construct: expressed in transfected cells; host or cells: HEK293
In words: Live cell AKT2 target engagement by NanoBRET competitive probe displacement in HEK293 cells. In kind it is binding. The conditions noted are these: 2 h at 37° C., read-out: AKT2 IC50. The procedure:
(§1) Determining live cell AKT1 E17K, AKT1 WT, and AKT2 target engagement by NanoBRET competitive probe displacement. […] Briefly, HEK293 cells were transfected with plasmids encoding kinase-NanoLuciferase fusion proteins overnight. Cells were then treated with serial dilutions of compound and an ˜EC50 concentration of fluorescently-tagged ATP-competitive tracer (Promega). After incubation for 2 h at 37° C., luciferase substrate and extracellular luciferase inhibitor were added to all wells, and luminescent intensity at 460 nm and 600 nm were measured on a multimode plate-reader. The ratio of E600/E460 was calculated to give the tracer engagement signal (BRET). IC50 values were calculated by fitting BRET values to a log(inhibitor) vs. response Hill equation.
(In general: Bioluminescence resonance energy transfer reports proximity on the nanometre scale.)

A further experiment concerns the target T2, AKT1 WT (Homo sapiens, UniProt P31749).
T2 construct: expressed in transfected cells; host or cells: HEK293
The experiment can be described thus: Live cell AKT1 WT target engagement by NanoBRET competitive probe displacement in HEK293 cells. The settings on record: 2 h at 37° C., read-out: AKT1 WT IC50. Format: binding. The procedure: as §1

Setting [1] is: NanoBRET live cell target engagement, HEK293 cells.
Setting [2] is: NanoBRET competitive probe displacement, live HEK293 cells.

Like-named read-outs stand apart in the source and are kept apart here. A value given as a limit tells only on which side of the number the result lay.

T2 sequence (P31749 whole entry): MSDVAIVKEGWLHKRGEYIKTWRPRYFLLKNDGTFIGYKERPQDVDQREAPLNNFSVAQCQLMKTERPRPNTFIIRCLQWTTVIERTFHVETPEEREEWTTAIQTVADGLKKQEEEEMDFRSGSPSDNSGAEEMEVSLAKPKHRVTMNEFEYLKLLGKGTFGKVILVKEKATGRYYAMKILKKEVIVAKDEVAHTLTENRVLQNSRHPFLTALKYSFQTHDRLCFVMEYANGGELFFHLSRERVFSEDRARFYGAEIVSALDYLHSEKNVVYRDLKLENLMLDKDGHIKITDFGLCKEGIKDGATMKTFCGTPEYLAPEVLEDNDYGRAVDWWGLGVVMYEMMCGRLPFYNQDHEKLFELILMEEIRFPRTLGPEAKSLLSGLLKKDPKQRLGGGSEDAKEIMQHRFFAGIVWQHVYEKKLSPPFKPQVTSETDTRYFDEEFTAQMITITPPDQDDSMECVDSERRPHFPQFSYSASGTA
T1 sequence (P31751 whole entry): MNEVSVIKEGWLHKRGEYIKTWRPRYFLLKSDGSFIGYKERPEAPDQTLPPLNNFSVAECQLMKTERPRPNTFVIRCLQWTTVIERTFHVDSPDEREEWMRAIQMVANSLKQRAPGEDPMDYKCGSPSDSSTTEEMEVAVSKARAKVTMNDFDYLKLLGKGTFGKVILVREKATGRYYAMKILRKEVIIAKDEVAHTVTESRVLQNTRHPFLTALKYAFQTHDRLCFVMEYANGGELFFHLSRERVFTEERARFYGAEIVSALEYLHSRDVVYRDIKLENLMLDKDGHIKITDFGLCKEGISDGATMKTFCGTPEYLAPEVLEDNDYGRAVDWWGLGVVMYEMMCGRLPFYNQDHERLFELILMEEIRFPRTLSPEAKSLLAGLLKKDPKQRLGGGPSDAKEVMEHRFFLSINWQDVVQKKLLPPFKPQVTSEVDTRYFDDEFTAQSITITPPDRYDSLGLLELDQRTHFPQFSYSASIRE

As a reminder, the IC50 is the point on the concentration scale where inhibition reaches its midpoint. Take `COc1cc(C(=O)N[C@H]2CCc3cc(-n4c(-c5cccnc5N)nc5ccc(-n6cccn6)nc54)ccc32)cc(F)n1` [Compound 344]: the figures for the IC50 at AKT2 (setting [1]) and at AKT1 WT (setting [1]) were 19.6 nM and 7.97 nM, respectively.

Take `Nc1ncccc1-c1nc2ccc(-n3cccn3)nc2n1-c1ccc2c(c1)CC[C@@H]2NC1CC2(CCCN(c3ccccn3)C2)C1` (stereo partly shown) [Compound 467]: the IC50 at AKT2 (setting [2]) was determined as 3560 nM; on AKT1 WT (setting [2]), 358 nM.

On to `Cc1ccc(C(=O)N[C@H]2CCc3cc(-n4c(-c5cccnc5N)nc5ccc(-n6ncnc6C6CC6)nc54)ccc32)cn1` [Compound 420], for which the IC50 on AKT2 (setting [2]) was found to be 3100 nM; on AKT1 WT (setting [2]) it was 336 nM.

Regarding `Nc1ncccc1-c1nc2ccc(-n3ccc(OC(F)F)n3)nc2n1-c1ccc2c(c1)CC[C@@H]2NC1CCN(C(=O)C2CC2)CC1` [Compound 483], the IC50 at AKT2 (setting [2]) was found to be 7440 nM; at AKT1 WT (setting [2]) it was 30.9 nM.

For the compound `Nc1ncccc1-c1nc2ccc(-n3cccn3)nc2n1-c1ccc2c(c1)CC[C@@H]2NCc1ccncc1` [Compound 142], the IC50 at AKT2 (setting [1]) is 886 nM; on AKT1 WT (setting [1]) it was 43.8 nM.

Turning to `Cn1ccc(C#Cc2cc(C(=O)N[C@H]3CCc4cc(-n5c(-c6cccnc6N)nc6ccc(-n7cccn7)nc65)ccc43)ccn2)n1` [Compound 182], the IC50 stood at 219 nM on AKT2 (setting [1]) and 11.5 nM at AKT1 WT (setting [1]).

Regarding `Cc1ccc2nc(-c3cccnc3N)n(-c3ccc4c(c3)CC[C@@H]4NC(=O)c3cccnc3C)c2n1` [Compound 145], the IC50 was over 10000 nM at AKT2 (setting [1]) and 170 nM on AKT1 WT (setting [1]).

On to `Nc1ncccc1-c1nc2ccc(-n3cccn3)nc2n1-c1ccc2c(c1)CC[C@@H]2n1cc(-c2ccccn2)nn1` [Compound 200], for which the IC50 is 212 nM at AKT2 (setting [1]) and 14.7 nM at AKT1 WT (setting [1]).

With `CC(C)C(=O)N1CCC(N[C@@H]2c3ccc(-n4c(-c5cccnc5N)nc5ccc(-n6cccn6)nc54)cc3CC2F)CC1` (stereo partly shown) [Compound 542], the results for the IC50 at AKT2 (setting [2]) and at AKT1 WT (setting [2]) were 2330 nM and 117 nM, respectively.

`CNS(=O)(=O)c1ccc(C(=O)N[C@H]2CCc3cc(-n4c(-c5cccnc5N)nc5ccc(-n6cccn6)nc54)ccc32)cc1` [Compound 308]: the IC50 on AKT2 (setting [1]) came to 296 nM; on AKT1 WT (setting [1]) it was 15.1 nM.

Consider `Nc1ncccc1-c1nc2ccc(-n3cccn3)nc2n1-c1ccc2c(c1)CC[C@@H]2NC(=O)c1cnc2nccn2c1` [Compound 160], for which the IC50 at AKT2 (setting [1]) was 560 nM; on AKT1 WT (setting [1]), 53.5 nM.

For the compound `Cc1ccc(C(=O)N[C@H]2CCc3cc(-n4c(-c5cccnc5N)nc5ccc(-c6ncn(C)n6)nc54)ccc32)cn1` [Compound 455, (S)—N-(5-(2-(2-aminopyridin-3-yl)-5-(1-methyl-1H-1,2,4-triazol-3-yl)-3H-imidazo[4,5-b]pyridin-3-yl)-2,3-dihydro-1H-inden-1-yl)-6-methylnicotinamide], the IC50 at AKT2 (setting [2]) was 3020 nM; at AKT1 WT (setting [2]), 195 nM.

Turning to `Cc1ncc(C(=O)N[C@H]2CCc3cc(-n4c(-c5cccnc5N)nc5ccc(-n6nccn6)nc54)ccc32)c(C)n1` [Compound 92], the half-maximal inhibitory concentration (IC50) at AKT2 (setting [1]) was determined as 1140 nM; at AKT1 WT (setting [1]) it was 42.8 nM.

On to `Cc1ccc(C(=O)N[C@H]2CCc3cc(-n4c(-c5cccnc5N)nc5ccc(-c6nc(C)cs6)nc54)ccc32)cn1` [Compound 300], for which the half-inhibitory concentration (IC50) on AKT2 (setting [1]) stood at 8.47 nM; on AKT1 WT (setting [1]), 3.32 nM.

Regarding `Cc1ccc(C(=O)N[C@H]2CCc3cc(-n4c(-c5cccnc5N)nc5ccc(-n6cnc(C7CC7)n6)nc54)ccc32)cn1` [Compound 419], the IC50 on AKT2 (setting [2]) was found to be 540 nM; on AKT1 WT (setting [2]), 35.9 nM.

On to `Nc1ncccc1-c1nc2ccc(-n3cccn3)nc2n1-c1ccc2c(c1)CC[C@@H]2NC1CCC2(CC1)CN(c1ccccn1)C2` [Compound 450], for which the IC50 on AKT2 (setting [2]) was 4470 nM; at AKT1 WT (setting [2]) it was 198 nM.

Take `Nc1ncccc1-c1nc2ccc(-n3cccn3)nc2n1-c1ccc2c(c1)CC[C@@H]2NC(=O)c1ccc(Cl)cc1` [Compound 263]: the 50% inhibitory concentration (IC50) at AKT2 (setting [1]) is 120 nM; at AKT1 WT (setting [1]) it was 9.18 nM.

In the case of `Nc1ncccc1-c1nc2ccc(-n3cccn3)nc2n1-c1ccc2c(c1)CC[C@@H]2NC1CCN(C(=O)C2CC2)CC1F` (stereo partly shown) [Compound 446], the IC50 on AKT2 (setting [2]) is 1330 nM; at AKT1 WT (setting [2]), 31.9 nM.

Regarding `Nc1ncccc1-c1nc2ccc(-n3ccc(OC(F)F)n3)nc2n1-c1ccc2c(c1)CC[C@@H]2NC(=O)c1cnc(C(F)F)s1` [Compound 534], the IC50 on AKT2 (setting [2]) is 507 nM; on AKT1 WT (setting [2]), 38.9 nM.

Take `Cc1ncccc1C(=O)N[C@H]1CCc2cc(-n3c(-c4cccnc4N)nc4ccc(N5CCOCC5)nc43)ccc21` [Compound 135]: the results for the IC50 at AKT2 (setting [1]) and on AKT1 WT (setting [1]) were 1110 nM and 83.1 nM, respectively.

For the compound `COc1ccc(C(=O)N[C@H]2CCc3cc(-n4c(-c5cccnc5N)nc5ccc(-n6cccn6)nc54)ccc32)cc1F` [Compound 241], the IC50 at AKT2 (setting [1]) came to 15.7 nM; on AKT1 WT (setting [1]), 4.06 nM.

On to `Nc1ccc(C(=O)N[C@H]2CCc3cc(-n4c(-c5cccnc5N)nc5ccc(-n6cccn6)nc54)ccc32)cn1` [Compound 311], for which the half-maximal inhibitory concentration (IC50) at AKT2 (setting [1]) is 191 nM; at AKT1 WT (setting [1]), 19.1 nM.

For the compound `CC#Cc1ncccc1C(=O)N[C@H]1CCc2cc(-n3c(-c4cccnc4N)nc4ccc(-n5cccn5)nc43)ccc21` [Compound 211], the IC50 on AKT2 (setting [1]) turned out to be 824 nM; at AKT1 WT (setting [1]) it was 32.1 nM.

For `Cn1ncc(-c2ccc3nc(-c4cccnc4N)n(-c4ccc5c(c4)CC[C@@H]5n4ccnn4)c3n2)n1` [Compound 247], the IC50 was 1570 nM at AKT2 (setting [1]) and 60.4 nM at AKT1 WT (setting [1]).

Turning to `Nc1ncccc1-c1nc2ccc(-n3cccn3)nc2n1-c1ccc2c(c1)CC[C@@H]2NC1CCN(C(=O)C2CC2(F)F)CC1` (stereo partly shown) [Compound 433], the 50% inhibitory concentration (IC50) was 3530 nM at AKT2 (setting [2]) and 190 nM at AKT1 WT (setting [2]).

Consider `Nc1ncccc1-c1nc2ccc(-n3cccn3)nc2n1-c1ccc2c(c1)CC[C@@H]2NC1CC2(CCCN(c3ccccn3)C2)C1` (stereo partly shown) [Compound 468], for which the IC50 on AKT2 (setting [2]) was 1960 nM; on AKT1 WT (setting [2]), 74.7 nM.

`COCC#Cc1ccc2nc(-c3cccnc3N)n(-c3ccc4c(c3)CC[C@@H]4NC(=O)c3ccc(C(F)F)nc3)c2n1` [Compound 409]: the IC50 came out at 1290 nM at AKT2 (setting [2]) and 36 nM on AKT1 WT (setting [2]).

Take `Nc1ncccc1-c1nc2ccc(-n3cccn3)nc2n1-c1ccc2c(c1)CC[C@@H]2N1CCCC1` [Compound 330]: the IC50 at AKT2 (setting [1]) came out at 1190 nM; at AKT1 WT (setting [1]) it was 55.1 nM.

With `Nc1ncccc1-c1nc2ccc(-n3cccn3)nc2n1-c1ccc2c(c1)CC[C@@H]2NC(=O)c1cc2n(n1)CCC2` [Compound 173], the IC50 at AKT2 (setting [1]) is 226 nM; on AKT1 WT (setting [1]), 30.2 nM.

With `CN(C)CC#Cc1ccc2nc(-c3cccnc3N)n(-c3ccc4c(c3)CC[C@@H]4NC(=O)c3ccc(C(F)F)nc3)c2n1` [Compound 407], the IC50 at AKT2 (setting [2]) is 3550 nM; on AKT1 WT (setting [2]) it was 421 nM.

With `COc1cnn(-c2ccc3nc(-c4cccnc4N)n(-c4ccc5c(c4)CC[C@@H]5NC4CCN(C(=O)C5CC5)CC4)c3n2)c1` [Compound 485], the IC50 on AKT2 (setting [2]) stood at 997 nM; on AKT1 WT (setting [2]) it was 50.9 nM.

For `Cn1ccc(CN[C@H]2CCc3cc(-n4c(-c5cccnc5N)nc5ccc(-n6cccn6)nc54)ccc32)n1` [Compound 206], the IC50 is 1780 nM on AKT2 (setting [1]) and 121 nM at AKT1 WT (setting [1]).

For `Nc1ncccc1-c1nc2ccc(-n3cccn3)nc2n1-c1ccc2c(c1)CC[C@@H]2NC(=O)c1cccc(F)c1` [Compound 332], the IC50 on AKT2 (setting [1]) is 60.2 nM; on AKT1 WT (setting [1]), 7.58 nM.

As to `N#Cc1cc(-n2cccn2)nc2c1nc(-c1cccnc1N)n2-c1ccc2c(c1)CC[C@@H]2NC(=O)c1ccc(C(F)F)nc1` [Compound 123, (S)—N-(5-(2-(2-aminopyridin-3-yl)-7-cyano-5-(1H-pyrazol-1-yl)-3H-imidazo[4,5-b]pyridin-3-yl)-2,3-dihydro-1H-inden-1-yl)-6-(difluoromethyl)nicotinamide], the 50% inhibitory concentration (IC50) was 114 nM on AKT2 (setting [1]) and 9.84 nM at AKT1 WT (setting [1]).

On to `Nc1ncccc1-c1nc2ccc(-n3cccn3)nc2n1-c1ccc2c(c1)CC[C@@H]2NC(=O)CC1CCC(=O)N1` (stereo partly drawn) [Compound 47, N—((S)-5-(2-(2-aminopyridin-3-yl)-5-(1H-pyrazol-1-yl)-3H-imidazo[4,5-b]pyridin-3-yl)-2,3-dihydro-1H-inden-1-yl)-2-(5-oxopyrrolidin-2-yl)acetamide], for which the half-maximal inhibitory concentration (IC50) on AKT2 (setting [1]) is over 10000 nM; on AKT1 WT (setting [1]), over 1000 nM.

As for `Cc1cnc2ccc(C(=O)N[C@H]3CCc4cc(-n5c(-c6cccnc6N)nc6ccc(-n7nccn7)nc65)ccc43)cn12` [Compound 398], the half-maximal inhibitory concentration (IC50) on AKT2 (setting [2]) amounted to 1090 nM; on AKT1 WT (setting [2]) it was 17.8 nM.

With `Nc1ncccc1-c1nc2ccc(-n3ccc(OC(F)F)n3)nc2n1-c1ccc2c(c1)CC[C@@H]2NC(=O)c1ccc(C2CC2)nc1` [Compound 537], the IC50 at AKT2 (setting [2]) was found to be 15.3 nM; at AKT1 WT (setting [2]) it was 2.77 nM.

In the case of `Nc1ncccc1-c1nc2ccc(-n3ccc(F)n3)nc2n1-c1ccc2c(c1)CC[C@@H]2NC(=O)c1ccc(F)c(F)c1` [Compound 347], the IC50 at AKT2 (setting [1]) was 824 nM; on AKT1 WT (setting [1]), 23.7 nM.

Consider `CN(C)c1ccn(-c2ccc3nc(-c4cccnc4N)n(-c4ccc5c(c4)CC[C@@H]5NC4CCN(c5ccn(C)n5)CC4)c3n2)n1` [Compound 589], for which the 50% inhibitory concentration (IC50) at AKT2 (setting [2]) is 650 nM; on AKT1 WT (setting [2]), 16.8 nM.

On to `CN1CCN(c2ccn(-c3ccc4nc(-c5cccnc5N)n(-c5ccc6c(c5)CC[C@@H]6NC5CCN(C(=O)C6CC6)CC5)c4n3)n2)CC1` [Compound 563], for which the IC50 on AKT2 (setting [2]) is 37.8 nM; at AKT1 WT (setting [2]), 1.83 nM.

As for `Cc1ncc(C(=O)N[C@H]2CCc3cc(-n4c(-c5cccnc5N)nc5ccc(-n6nccn6)nc54)ccc32)s1` [Compound 492], the results for the IC50 at AKT2 (setting [2]) and at AKT1 WT (setting [2]) were 2120 nM and 24.1 nM, respectively.
